From patent US20240247029A1, “INTERLEUKIN-1 RECEPTOR MODULATORS AND USES THEREOF” (VALORISATION HSJ, LIMITED PARTNERSHIP, priority 2020, published 2024)

Columns and labels:
[1] = test system: IL-1β-induced NF-κB signaling in HEK-Blue IL-33/IL-1β cells; assay: NF-κB QUANTI-Blue assay; assay type: cell-based; conditions: peptide 10^−6 M, 30 min pretreatment, IL-1β 100 ng/ml
Description: FIG. 3 is a graph showing the effects of peptides 1 and 2 on IL-1β-induced NF-κB signaling in HEK-Blue cells as quantified in the QUANTI-blue assay. After pre-incubation with peptide or vehicle, HEK-Blue cells were stimulated with IL-1β for 24 h, and secreted alkaline phosphatase activity was spectroscopically detected as a reporter product from the transcription of the NF-κB gene. Data shown represents the average of 2 experiments (each with n=4 per treatment group): ****p<0.0001 compared to group treated only with IL-1β.
HEK-Blue IL-33/IL-1β cells (InvivoGen) were respectively pretreated with peptides 1 and 2 (10^−6 M), or Kineret (1.0 mg/mL) for 30 min, followed by treatment with a constant concentration of […] (100 ng/ml), and incubation at 37° C. for 4 h. Levels of secreted alkaline phosphatase in cell culture supernatant were determined using the QUANTI-Blue assay, according to the manufacturer's instructions (InvivoGen). Alkaline phosphatase activity was assessed by measuring the optical density (OD) at 620-655 nm with an EnVision Multilabel micro plate reader (PerkinElmer, Waltham, MA). Data are representative of 3 experiments (each with n=4 per treatment group).

timed-pregnant CD-1 mice = assay: LPS-induced preterm birth model in mice; assay type: in vivo, mouse; conditions: 2 mg/kg/day subcutaneous, LPS 10 μg intraperitoneal on G16.5; delivery before G18.5; LPS alone ˜80%
Description: FIG. 6 is a graph showing the effects of peptides 1 and 2 on prevention of PTB. In brief, pregnant dams on day 16.5 of gestation (G16.5) were subcutaneously pretreated with peptides 1 and 2 (2 mg/kg/day subcutaneous injections) or vehicle, followed by LPS (10 μg intraperitoneal injection), and observed for delivery of pups. A dam was considered as delivering preterm if at least one pup was delivered before G18.5. n=4-5 dams per treatment group.
Timed-pregnant CD-1 mice at 16.5 days of gestation (G16.5) were anesthetized with 2% isoflurane and received an intraperitoneal injection of lipopolysaccharide (LPS, n=4 per group, a single dose of 10 ug) (Nadeau-Vallée et al., 2015; Kakinuma et al., 1997). A dosage of 2 mg/kg/day of peptides 1 and 2 or vehicle was respectively injected subcutaneously in the neck, every 12h until delivery. On G16.5, a dose of 1 mg/kg was injected 30 min before stimulation with LPS (to allow distribution of drugs to target tissues) and 1 mg/kg was injected 12h after stimulation (n=4 each treatment). Mice delivery was assessed every hour until term (G19-G19.5). A mouse was considered as delivering prematurely if the first pup was delivered earlier than G18.5. Data was analyzed using Prism 7 (GraphPad Software, San Diego, CA, USA) with one-way ANOVA and Dunnett's test for multiple comparisons. Outliers were detected using Grubb's test. Results were treated as significant when p was <0.05 and expressed as mean+SEM.
From the results of the in vitro screens, a subset of six (3R,4S)-β-substituted-Agl^3 peptides (e.g., 2c, 2d, 2f, 2l, 2n, 2q) were selected for examination in vivo in a CD-1 mouse model of preterm birth (PTB), and a Sprague Dawley rat model of oxygen-induced retinopathy (OIR). In the PTB model, timed-pregnant CD-1 dams were pre-treated with peptides 1 or 2, or PBS vehicle, and then injected with LPS on day 16.5 of gestation (G16.5). A bacterial cell wall component that contains PAMPs, LPS is known to reliably induce labor via pro-inflammatory pathways implicating IL-1 (Hirsch and Wang 2005). The CD-1 mice have a gestation of 19.2 days (Goupil et al. 2010). Dams that delivered at least one pup before G18.5 were considered to have given birth prematurely. In the absence of peptide, LPS alone induced premature labor in ˜80% of treated mice (FIG. 6). Peptide 1 and triazoles 2 l and 2q, all reduced the PTB rate to ˜20%.

Sprague Dawley rat pups = assay: Oxygen-induced retinopathy (OIR) model; assay type: in vivo; conditions: 2 mg/kg/day intraperitoneal twice daily, 80% oxygen P5 to P10
Source text: Experiments in the oxygen-induced retinopathy rodent model were preformed according to the method described previously (Geranurimi et al. 2019), and summarized below.
Animals. Two-day-old (P2) Sprague Dawley rat pups and their mothers were ordered from Charles River (Raleigh, SC, USA) and acclimatized for 3 days in standard conditions. All procedures and protocols involving the use of the rats were approved by the Animal Care Committee of the research center of Hopital Maisonneuve-Rosemont and are in accordance with the Statement for the Use of Animals in Ophthalmic and Vision Research approved by the Association for Research in Vision and Ophthalmology, and guidelines established by the Canadian Council on Animal Care.
Oxygen-Induced Retinopathy in Sprague Dawley Rats. The 80% oxygen model of retinopathy was conducted as previously described (Geranurimi et al. 2019). Briefly, litters of P5 pups and their mothers were kept in a controlled 80% oxygen environment until P10. The pups were respectively injected intraperitoneally twice daily with PBS vehicle (20 μL per injection), peptide 1 or derivatives 2 (titrated to a daily dose of 2 mg/kg/day). Control litters were kept under normal air atmosphere and standard conditions. On P10, pups were euthanized by decapitation under 2% isoflurane anesthesia. Eyes were enucleated and fixed in 4% paraformaldehyde, then stored at 4° C. in phosphate-buffered saline (PBS) until further processing.
Retinal Flatmount and Immunohistochemistry. The fixed eyes were dissected, and the obtained retinas were incubated with antibodies and mounted onto slides as previously described in (Geranurimi et al. 2019). Briefly, the cornea and lens were removed from the eyes, and the retina gently removed from the underlying sclera-choroid-retinal pigmented epithelium (RPE) complex. Retinas were treated for 1h with blocking solution [1% bovine serum albumin (BSA), 1% normal goat serum, 0.1% Triton X-100 and 0.05% Tween-20 in PBS], and then incubated overnight with lectin and Iba-1 primary antibody, followed by Alexa-594-conjugated secondary antibody for 2 h. Retinas were then mounted onto microscope slides under coverslips with anti-fade mounting medium.
Microscopy. Retinal flatmounts were imaged using the Zeiss Axiolmager Z2 and the MosaiX feature of the AxioVision software as previously described (Geranurimi et al. 2019). Representative images after Iba-1 staining were taken using a laser scanning confocal microscope (Olympus IX81 with Fluoview FV1000 Scanhead) using the Fluoview Software at 30× magnification.
Quantification and Data Analysis. The FIJI software was used to quantify the area of vaso-obliteration in each retina, expressed as a percentage of the area of the whole retina. The number of Iba-1-positive cells was counted using the cell counter plug-in in the FIJI software, and the average of cell counts in 4 fields per retina was calculated. Data was analyzed using Prism 7 with one-way ANOVA and the Dunnett's test for multiple comparisons. Results were treated as significant when p was less than 0.05 and expressed as mean+SEM.

human thymocyte = conditions: in vitro (Jamieson et al. 2009); cited from earlier work
[2] = Quiniou et al. 2008; cited from earlier work

## H-D-Arg-D-Tyr-D-Thr-D-Val-D-Glu-D-Leu-D-Ala-NH2 [compound 1, reference compound]
[1]
  effect on IL-1β-induced NF-κB signaling (secreted alkaline phosphatase): no effect
timed-pregnant CD-1 mice
  PTB rate: ~20%
Sprague Dawley rat pups
  retinal microglial morphology/activation (Iba-1 staining): ramified and branched microglia
Sprague Dawley rat pups; vehicle ˜30%
  extent of vaso-obliteration (percentage of total retinal area): ~20%
Human thymocyte
  IL-1β-induced human thymocyte cell proliferation: blocked
[2]
  in vivo effects in models of hyperthermia and inflammatory bowel disease: robust in vivo effects
